In patent US20250197375A1, “PYRIMIDINES AND METHODS OF THEIR USE” (Kineta, Inc., priority 2021, published 2025):
Read-outs that look alike come from different tables or passages of the source.

Assays:
[1] = test system: FAB1 TDP-43 yeast strain; experiment: Propidium iodide viability assay in FAB1 TDP-43 control yeast strain; format: cell-based; conditions: for FAB1 TDP-43 (active/inactive): FAB1 TDP-43 yeast model
Description: Viability Assay. A control yeast strain with the wild-type yeast FAB1 gene and TDP-43 (“FAB1 TDP-43”, carries empty pAG416 plasmid), and the “PIKFYVE TDP-43” yeast strain, were assessed for toxicity using a propidium iodide viability assay. Both yeast strains were transferred from solid CSM-ura/2% glucose agar plates into 3 mL of liquid CSM-ura/2% glucose media for 6-8 hours at 30° C. with aeration. Yeast cultures were then diluted to an optical density at 600 nm wavelength (OD600) of 0.005 in 3 mL of CSM-ura/2% raffinose and grown overnight at 30° C. with aeration to an OD600 of 0.3-0.8. Log-phase overnight cultures were diluted to OD600 of 0.005 in CSM-ura containing either 2% raffinose or galactose and 150 µL dispensed into each well of a flat bottom 96-well plates. Compounds formulated in 100% dimethyl sulfoxide (DMSO) were serially diluted in DMSO and 1.5 µL diluted compound transferred to the 96-well plates using a multichannel pipet. Wells containing DMSO alone were also evaluated as controls for compound effects. Tested concentrations ranged from 15 µM to 0.11 µM. Cultures were immediately mixed to ensure compound distribution and covered plates incubated at 30° C. for 24 hours in a stationary, humified incubator.
(§1) Upon the completion of incubation, cultures were assayed for viability using propidium iodide (PI) to stain for dead/dying cells. A working solution of PI was made where, for each plate, 1 µL of 10 mM PI was added to 10 mL of CSM-ura (raffinose or galactose). The final PI solution (50 µL/well) was dispensed into each well of a new round bottom 96-well plate. The overnight 96-well assay plate was then mixed with a multichannel pipet and 50 µL transferred to the PI-containing plate. This plate was then incubated for 30 minutes at 30° C. in the dark. A benchtop flow cytometer (Miltenyi MACSquant) was then used to assess red fluorescence (B2 channel), forward scatter, and side scatter (with following settings: gentle mix, high flow rate, fast measurement, 10,000 events). Intensity histograms were then gated for “P-positive” or “PI-negative” using the raffinose and galactose cultures treated with DMSO as controls. The DMSO controls for raffinose or galactose-containing cultures were used to determine the window of increased cell death and this difference set to 100. All compounds were similarity gated and then compared to this maximal window to establish the percent reduction in PI-positive cells.

[2] = test system: PIKFYVE TDP-43 yeast strain; experiment: Propidium iodide viability assay in PIKFYVE TDP-43 yeast strain; format: cell-based; conditions: for PIKfyve TDP-43 (active/inactive): PIKFYVE TDP-43 yeast model; for IC50: Saccharomyces cerevisiae, PIKFYVE TDP-43 yeast strain, reduction in PI-positive cells, 15 to 0.11 μM, 24 hours
Source text: Generation of TDP-43 yeast model expressing human PIKfyve. Human PIKFYVE (“entry clone”) was cloned into pAG416GPDccdB (“destination vector”) according to standard Gateway cloning protocols (Invitrogen, Life Technologies). […] Lithium acetate/polyethylene glycol-based transformation was used to introduce the above PIKFYVE plasmid into a BY4741 yeast strain auxotrophic for the ura3 gene and deleted for two transcription factors that regulate the xenobiotic efflux pumps, a major efflux pump, and FAB1, the yeast ortholog of PIKFYVE (MATa, snq2::KILeu2; pdr3::Klura3; pdr1::NATMX; fab1::G418^R, his3; leu2; ura3; met15; LYS2+) (FIG. 2). Transformed yeast were plated on solid agar plates with complete synthetic media lacking uracil (CSM-ura) and containing 2% glucose. Individual colonies harboring the control or PIKFYVE TDP-43 plasmids were recovered. A plasmid containing wild-type TDP-43 under the transcriptional control of the GAL1 promoter and containing the hygromycin-resistance gene as a selectable marker was transformed into the fab1::G418^R pAG416GPD-PIKFYVE yeast strain (FIG. 1). Transformed yeast were plated on CSM-ura containing 2% glucose and 200 µg/mL G418 after overnight recovery in media lacking antibiotic. Multiple independent isolates were further evaluated for cytotoxicity and TDP-43 expression levels.
Viability Assay. A control yeast strain with the wild-type yeast FAB1 gene and TDP-43 (“FAB1 TDP-43”, carries empty pAG416 plasmid), and the “PIKFYVE TDP-43” yeast strain, were assessed for toxicity using a propidium iodide viability assay. Both yeast strains were transferred from solid CSM-ura/2% glucose agar plates into 3 mL of liquid CSM-ura/2% glucose media for 6-8 hours at 30° C. with aeration. […] Log-phase overnight cultures were diluted to OD600 of 0.005 in CSM-ura containing either 2% raffinose or galactose and 150 µL dispensed into each well of a flat bottom 96-well plates. […] Wells containing DMSO alone were also evaluated as controls for compound effects. […] Cultures were immediately mixed to ensure compound distribution and covered plates incubated at 30° C. for 24 hours in a stationary, humified incubator.
as §1

[3] = molecular target: full-length human PIKFYVE (Homo sapiens (Human), UniProt Q9Y2I7, L932S/Q1183K/Q995L/S1033A/S696N/T998S); experiment: PIKfyve Biochemical Assay (ADP-Glo Kinase assay, GST-PIKFYVE)
full-length human PIKFYVE, sequence (Q9Y2I7 whole entry S696N/L932S/Q995L/T998S/S1033A/Q1183K): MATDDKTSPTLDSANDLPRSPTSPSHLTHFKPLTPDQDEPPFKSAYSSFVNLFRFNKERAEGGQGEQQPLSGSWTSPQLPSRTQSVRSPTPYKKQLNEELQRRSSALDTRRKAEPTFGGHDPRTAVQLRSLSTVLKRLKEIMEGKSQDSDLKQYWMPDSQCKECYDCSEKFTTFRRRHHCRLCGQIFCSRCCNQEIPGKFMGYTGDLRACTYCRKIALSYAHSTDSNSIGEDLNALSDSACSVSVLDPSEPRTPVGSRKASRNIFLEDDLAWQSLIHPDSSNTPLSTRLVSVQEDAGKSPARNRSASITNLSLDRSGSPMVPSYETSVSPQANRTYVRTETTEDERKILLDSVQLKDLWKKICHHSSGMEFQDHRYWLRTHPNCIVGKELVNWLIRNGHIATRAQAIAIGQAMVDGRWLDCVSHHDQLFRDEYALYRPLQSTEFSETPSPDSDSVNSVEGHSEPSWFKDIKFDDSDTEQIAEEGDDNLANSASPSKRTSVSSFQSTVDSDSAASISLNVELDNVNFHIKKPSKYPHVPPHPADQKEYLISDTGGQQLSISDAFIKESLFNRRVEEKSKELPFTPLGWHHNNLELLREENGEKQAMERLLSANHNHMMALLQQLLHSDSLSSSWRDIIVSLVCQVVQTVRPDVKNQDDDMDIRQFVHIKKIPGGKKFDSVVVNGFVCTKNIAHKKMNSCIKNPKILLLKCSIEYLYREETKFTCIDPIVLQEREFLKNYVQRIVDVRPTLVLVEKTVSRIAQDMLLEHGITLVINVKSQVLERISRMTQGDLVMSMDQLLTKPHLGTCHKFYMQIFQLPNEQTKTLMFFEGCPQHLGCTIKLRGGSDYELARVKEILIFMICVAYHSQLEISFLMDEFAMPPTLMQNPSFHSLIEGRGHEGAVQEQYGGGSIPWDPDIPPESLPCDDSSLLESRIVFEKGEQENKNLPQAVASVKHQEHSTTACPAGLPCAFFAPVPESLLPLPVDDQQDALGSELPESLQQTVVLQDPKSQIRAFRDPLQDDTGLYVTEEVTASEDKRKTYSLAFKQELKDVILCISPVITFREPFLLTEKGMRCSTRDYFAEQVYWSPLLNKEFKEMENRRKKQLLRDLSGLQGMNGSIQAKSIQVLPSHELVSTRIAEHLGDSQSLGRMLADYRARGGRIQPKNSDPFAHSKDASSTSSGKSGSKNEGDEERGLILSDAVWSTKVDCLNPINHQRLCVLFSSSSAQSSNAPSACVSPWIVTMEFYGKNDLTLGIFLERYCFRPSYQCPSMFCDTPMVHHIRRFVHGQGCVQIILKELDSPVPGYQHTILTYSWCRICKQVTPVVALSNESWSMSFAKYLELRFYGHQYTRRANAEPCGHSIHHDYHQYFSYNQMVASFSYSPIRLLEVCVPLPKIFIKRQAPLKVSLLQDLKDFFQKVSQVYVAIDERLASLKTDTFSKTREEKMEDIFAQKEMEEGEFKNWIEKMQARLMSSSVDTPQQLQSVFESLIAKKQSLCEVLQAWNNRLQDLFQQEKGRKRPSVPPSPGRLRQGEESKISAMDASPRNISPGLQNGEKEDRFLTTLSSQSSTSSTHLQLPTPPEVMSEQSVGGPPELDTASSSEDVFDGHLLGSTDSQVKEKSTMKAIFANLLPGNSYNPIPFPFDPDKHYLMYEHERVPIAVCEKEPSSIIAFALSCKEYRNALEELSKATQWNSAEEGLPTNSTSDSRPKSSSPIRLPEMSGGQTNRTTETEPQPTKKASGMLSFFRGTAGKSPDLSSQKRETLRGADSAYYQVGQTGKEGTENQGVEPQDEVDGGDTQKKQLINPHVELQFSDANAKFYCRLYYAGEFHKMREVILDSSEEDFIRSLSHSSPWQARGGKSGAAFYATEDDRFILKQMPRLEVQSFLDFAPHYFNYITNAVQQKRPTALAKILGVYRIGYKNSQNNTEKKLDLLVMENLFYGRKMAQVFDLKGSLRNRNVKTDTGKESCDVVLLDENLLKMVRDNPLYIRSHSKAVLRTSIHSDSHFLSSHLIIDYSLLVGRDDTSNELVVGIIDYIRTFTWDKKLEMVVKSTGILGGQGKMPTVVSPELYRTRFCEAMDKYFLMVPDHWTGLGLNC
Description: PIKfyve Biochemical Assay. The biochemical PIKFyve inhibition assays were run by Cama Biosciences according to proprietary methodology based on the Promega ADP-Glo™ Kinase assay. […] GST-PIKFYVE was purified by using glutathione sepharose chromatography and used in an ADP-Glo™ Kinase assay (Promega). Reactions were set up by adding the test compound solution, substrate solution, ATP solution and kinase solution, each at 4× final concentrations. Reactions were prepared with assay buffer (50 mM MOPS, 1 mM DTT, pH7.2), mixed, and incubated in black 384 well polystyrene plates for 1 hour at room temperature. ADP-Glo™ reagent was then added for 40 minutes, followed by kinase detection reagent for an additional 40 minutes. The kinase activity was evaluated by detecting relative light units on a luminescence plate reader. Samples were run in duplicate from 10 μM to 3 nM. […] IC50 values were calculated from concentration versus percent inhibition curves by fitting to a four-parameter logistic curve.
The biochemical PIKFyve inhibition assays were run by Cama Biosciences according to proprietary methodology based on the Promega ADP-Glo™ Kinase assay. […] GST-PIKFYVE was purified by using glutathione sepharose chromatography and used in an ADP-Glo™ Kinase assay (Promega).
Reactions were set up by adding the test compound solution, substrate solution, ATP solution and kinase solution, each at 4× final concentrations. Reactions were prepared with assay buffer (50 mM MOPS, 1 mM DTT, pH7.2), mixed, and incubated in black 384 well polystyrene plates for 1 hour at room temperature. ADP-Glo™ reagent was then added for 40 minutes, followed by kinase detection reagent for an additional 40 minutes. The kinase activity was evaluated by detecting relative light units on a luminescence plate reader. Samples were run in duplicate from 10 uM to 3 nM. […] IC50 values were calculated from concentration vs % inhibition curves by fitting to a four-parameter logistic curve.

[4] = molecular target: PIKfyve (Homo sapiens (Human), UniProt Q9Y2I7); experiment: PIKfyve EEA1 Assay (endosomal vesicle enlargement, high content imaging in U2OS cells); format: cell-based; conditions: 3 hours of treatment, activity relative to maximal APY0201 activity
PIKfyve, sequence (Q9Y2I7 whole entry): as the sequence (Q9Y2I7 whole entry S696N/L932S/Q995L/T998S/S1033A/Q1183K) above, with N696S, S932L, L995Q, S998T, A1033S, K1183Q counted along it
Description: PIKfyve EEA1 Assay. Genetic or pharmacological disruption of PIKfyve activity results in enlargement of endosomal vesicles. This enlargement was utilized as a surrogate readout of PIKFyve inhibition for routine triage of PIKfyve inhibitors. U2OS cells grown in 96-well assay plates were treated with compound diluted in DMEM media containing 10% fetal bovine serum. After 3 hours of treatment, cells were fixed with paraformaldehyde, permeabilized with 0.2% Triton-X in phosphate buffered saline and stained against EEA1. During the secondary antibody staining, cells were also stained with CellMask™ Deep Red and Hoechst to detect cytoplasms and nuclei respectively. Endosomal structures were visualized using a high content imager at 40× magnification. Images were analyzed using a linear classifier algorithm integrating EEA1 spot size, intensity and texture trained on images of cells treated with the potent reference compound APY0201. Compound activity was calculated by subtracting the DMSO signal and calculating percentage activity relative to maximal APY0201 activity. IC50 values were then calculated from concentration versus percent inhibition data by logistic regression.

[5] = ADP-Glo, 1 hour at room temperature, 10 μM to 3 nM in duplicate, read-out: PIKfyve Biochemistry IC50 (μM)*

Row | SMILES | FAB1 TDP-43 (active/inactive) [1] | PIKfyve TDP-43 (active/inactive) [2] | IC50 [2] [nM] | other results
1 | Cc1cccc(/C=N/Nc2cc(N3CC4CC3CO4)n3nc(-c4ccncc4)cc3n2)c1 (centres unmarked) | Inactive | Active |  | 
2 | Cn1c(-c2ccncc2)nc2c(N3CCOCC3)ncnc21 | Inactive | Inactive |  | 
3 | CN(C)c1cc(N2CCOCC2)n2nc(-c3ccncc3)cc2n1 | Inactive | Inactive |  | 
4 | N#Cc1cc(N2CCOCC2)n2nc(-c3ccncc3)cc2n1 | Inactive | Inactive |  | IC50 ([3]; ADP-Glo with full-length PIKfyve, read-out: PIKfyve IC50): > 10 µM
5 | Cc1cccc(/C=N/Nc2cc(N3CCOCC3)nc(OCCc3ccc(CN)cc3)n2)c1 |  |  | 1120 | 
6 | c1ccc(-c2cccc(-c3cc(N4CCOCC4)n4nc(-c5ccncc5)cc4n3)n2)cc1 |  |  | 230 | 
7 | Oc1cc(-c2ccccc2)nn1-c1cc(N2CCOCC2)n2nc(-c3ccncc3)nc2n1 |  |  | 693 | 
8 | Oc1cc(C2CCOCC2)nn1-c1cc(N2CCOCC2)n2nc(-c3ccncc3)cc2n1 |  |  | 9100 | 
9 | Cc1cccc(/C=N/Nc2nc(N3CCOCC3)c3ncccc3n2)c1 |  |  | 8210 | 
10 | c1ccc(-c2ccnc(-c3cc(N4CCOCC4)nc(OCc4ccncc4)n3)n2)cc1 |  |  | 1450 | 
11 | c1ccc(N2CCc3c(OCc4cccnc4)nc(N4CCOCC4)nc32)cc1 |  |  | 2680 | 
12 | Fc1cccc(-c2ccnn2-c2nc(N3CCOCC3)c3ncccc3n2)c1 |  |  | 5750 | 
13 | Cc1cccc(/C=N/Nc2cc(N3CCOCC3)n3nc(-c4ccncc4)cc3n2)c1 [APY0201] |  |  |  | viable cells (propidium iodide-negative population) ([1]; FAB1 TDP-43, across a range of compound concentrations (only 0.23 μM is shown), FIG. 5): no increase in viable cells; population of propidium iodide-positive dead cells ([2]; PIKFYVE TDP-43 model, 0.23 μM, FIG. 6): reduced the population of propidium iodide-positive dead cells; viability ([2]; PIKFYVE TDP-43 model, concentrations ranging from 0.5 mM to less than 100 nM): increased viability
14 | Cn1c(=O)c2c(Nc3ccncc3)nc(N3CCOCC3)nc2c2cc(-n3cccn3)ccc21 [Compound 65, 6-methyl-2-morpholino-9-pyrazol-1-yl-4-(4-pyridylamino)pyrimido[5,4-c]quinolin-5-one] |  |  |  | IC50 [4]: 1 to 10 µM; IC50 [3, 5]: 0.01 to 0.1 µM
15 | Cn1ccc(-c2cccc(-c3nc(N4CCOCC4)nc(Nc4ccncc4)c3-c3ncco3)c2)n1 [Compound 74, 6-[3-(1-methylpyrazol-3-yl)phenyl]-2-morpholino-5-oxazol-2-yl-N-(4-pyridyl)pyrimidin-4-amine] |  |  |  | IC50 [4]: 0.1 to 1 µM; IC50 [3, 5]: 0.01 to 0.1 µM
16 | Cc1cccc(/C=N/Nc2cc(N3CCOCC3)n3nc(-c4ccncc4)cc3n2)c1 [drawing 190] | Inactive | Active |  | 
17 | Cc1cccc(/C=N/Nc2nc(N3CCOCC3)c3nc(-c4ccncc4)n(C)c3n2)c1 [drawing 192] | Inactive | Active |  | 
18 | Cc1cccc(/C=N/Nc2nc(N3CCOCC3)c3nc(-c4ccncc4)n(C)c3n2)c1 [drawing 206] |  |  | 4720 | 
